Experiments:
C. parapsilosis MY 1010 = test: Minimum fungicidal concentration (MFC), microbroth dilution assay in YNBD; type: cell-based, Candida parapsilosis; conditions: 35° C. 24 hours, then SDA 24 hours at 28° C.
Method: (§1) The compounds of the present invention are active against many fungi and particularly against Candida species. The antifungal properties may be illustrated with the minimum fungicidal concentration (MFC) determination against certain Candida organisms in a microbroth dilution assay carried out in a Yeast Nitrogen Base (Difco) medium with 1% dextrose (YNBD).
(§2) In carrying out the assay, Compound A-Ia was solubilized in 10 percent dimethyl sulfoxide (DMSO) and diluted to 2560 μg/ml. The compound was then diluted to 256 μg/ml in YNBD.
(§3) The yeast cultures, maintained on Sabouraud dextrose agar were transferred to YN broth (Difco) and incubated overnight at 35° C. with shaking (250 rpm). After incubation, each culture was diluted in sterile water to yield a final concentration of 1-5×10^6 colony forming units (CFU)/ml.
(§4) 96-well microplates were inoculated using a MIC-2000 (Dynatech) which delivers […] per well yielding a final inoculum per well of 1.5-7.5×10^3 cells. The microplates were incubated at 35° C. for 24 hours. The minimum inhibitory concentrations (MICs) were recorded as the lowest concentrations of drug showing no visible growth.
(§5) After recording the MIC, the plates were shaken to resuspend the cells. […] The inoculated trays were incubated 24 hours at 28° C. and then read for minimum fungicidal concentration (MFC). […]

C. tropicalis MY 1012 = test: as above; type: cell-based, Candida tropicalis; conditions: 35° C. 24 hours, then SDA 24 hours at 28° C.
Method: as §1, §2, §3, §4, §5

Candida albicans MY 1055 = test: In vivo effectiveness in mice infected I.V. with Candida albicans, kidney CFU; set-up: species or system female DBA/2 mice; conditions: 0.4 mg/kg I.P. twice daily for four consecutive days; kidneys of DBA/2 mice after seven days
Method: Growth from an overnight SDA culture of Candida albicans MY 1055 was suspended in sterile saline and the cell concentration determined by hemacytometer count and the cell suspension adjusted to 3.75 x 10^5 cells/mi. Then 0.2 milliliter of this suspension was administered I.V. in the tail vein of mice so that the final inoculum was 7.5×10^4 cells/mouse.
The assay then was carried out by administering aqueous solutions of Compound A-Ia at various concentrations intraperitoneally (I.P.), twice daily (b.i.d.) for four consecutive days to 18 to 20 gram female DBA/2 mice, which previously had been infected with Candida albicans in the manner described above. Distilled water was administered I.P. to C. albicans challenged mice as controls. After seven days, the mice were sacrificed by carbon dioxide gas, paired kidneys were removed aseptically and placed in sterile polyethylene bags containing 5 milliters of sterile saline. The kidneys were homogenized in the bags, serially diluted in sterile saline and aliquots spread on the surface of SDA plates. The plates were incubated at 35° C. for 48 hours and yeast colonies were enumerated for determination of colony forming units (CFU) per gram of kidneys. Compound A-Ia gave 99 percent reduction of recoverable Candida CFUs at 0.4 mg/kg I.P. twice daily for four consecutive days.

C. Albicans MY 1028 = test: Minimum fungicidal concentration (MFC), microbroth dilution assay in YNBD; type: cell-based, Candida albicans; conditions: 35° C. 24 hours, then SDA 24 hours at 28° C.
Method: as §1, §2, §3, §4
(§6) After recording the MIC, the plates were shaken to resuspend the cells. Thereafter, 1.5 μl samples from the wells in the 96-well microplate were transferred to a single well tray containing Sabouraud dextrose agar. The inoculated trays were incubated 24 hours at 28° C. and then read for minimum fungicidal concentration (MFC). MFC is defined as the lowest concentration of drug showing no growth or less than 4 colonies per spot.

C. Albicans MY 1730 = test: as above; type: cell-based, Candida albicans; conditions: 35° C. 24 hours, then SDA 24 hours at 28° C.
Method: as §1, §2, §3, §4, §6

C. Albicans MY 1055 = test: as above; type: cell-based, Candida albicans; conditions: 35° C. 24 hours, then SDA 24 hours at 28° C.
Method: as §1, §2, §3, §4, §6

Pneumocystis carinii = Pneumocystis carinii pneumonia in immunosuppressed rats, lung cysts; type: in vivo, Sprague-Dawley rats; conditions: sc twice daily for four days, compared with untreated or solvent controls
Method: The compounds of the present invention may also be useful for inhibiting or alleviating Pneumocystis carinii infections in immune compromised patients. […] Before drug treatment, two rats are sacrificed to confirm the presence of Pneumocystis carinii pneumonia (PCP). Five rats (weighing approximately 150 grams) are injected twice daily for four days subcutaneously (sc) with Compound A-Ia in 0.25 ml of vehicle (distilled water). A vehicle control is also carried out. All animals continue to receive dexasone in the drinking water and low protein diet during the treatment period. At the completion of the treatment, all animals are sacrificed, the lungs are removed and processed, and the extent of disease determined by microscopic examination of stained slides for the presence of cysts.

[1] = tested on: C. pseudotropicalis MY 1100; test: Minimum fungicidal concentration (MFC), microbroth dilution assay in YNBD; type: cell-based, Candida pseudotropicalis; conditions: 35° C. 24 hours, then SDA 24 hours at 28° C.
Method: as §1, §2, §3, §4, §5

In the case of “1-[4-hydroxy-5-aminoethylthio-N^2 -(10,12-dimethyl-1-oxotetradecyl)ornithine]-5-(3-hydroxyglutamine)-6-(3-hydroxyproline)echinocandin B trifluoroacetate [Compound A-Ia]”, the MFC (C. parapsilosis MY 1010) is reported as 0.25 µg/mL, the MFC (C. tropicalis MY 1012) is reported as 0.125 µg/mL and the “reduction of recoverable Candida CFUs” value (Candida albicans MY 1055) is reported as 99%. For the same substance, the MFC (C. Albicans MY 1028) was 0.5 µg/mL, the MFC (C. Albicans MY 1730) was 0.125 µg/mL and the MFC (C. Albicans MY 1055) was 0.5 µg/mL. The “extent of disease: cysts in stained slides from the lungs” value (Pneumocystis carinii) was “prevention of or reduction of cysts” and the MFC [1] was 0.25 µg/mL.

From patent US5399552A, “Antibiotic peptides bearing aminoalkylthioether moieties” (Merck & Co, Inc, priority 1991, dated 1995)
